Drawing on ChEMBL document CHEMBL1127832, “Furoxans as nitric oxide donors. 4-Phenyl-3-furoxancarbonitrile: thiol-mediated nitric oxide release and biological evaluation” (J Med Chem, 1994), this text covers Recovery and EC50 for two compounds.

The species entered for assay [1] is Rattus norvegicus. Put plainly: Compound was tested for percent recovery of noradrenergic tone after washing aortic preparations with fresh Kreb's buffer. It is filed as functional. Particulars: Aorta.
The species named for assay [2] is Rattus norvegicus. The assay can be described thus: Compound was tested for its vasodilator effects on endothelium-denuded strips of rat aorta precontracted with noradrenaline. It is filed as functional.

Turning to `N#Cc1c(-c2ccccc2)no[n+]1[O-]` [FUROXAN], in the assay listed under Rattus norvegicus [1], the Recovery worked out at 66%.
As to `O=[N+]([O-])OCC(CO[N+](=O)[O-])O[N+](=O)[O-]` [NITROGLYCERIN], it took 22 nM to reach a half-maximal effect in the assay filed under Rattus norvegicus [2] (EC50).
